# Entries after “also recorded” stand apart in the source; their conditions may differ. Read-outs that look alike come from different tables or passages of the source.
# Legend:
# [1] = system: GPR35; assay: DMR desensitization / antagonism mode against GPR35 agonist-induced DMR in HT29 cells; assay type: cell-based, human
# [2] = biological target: hERG channel (Homo sapiens, UniProt Q12809); assay: Automated patch clamp recording of hERG tail current (IonWorks); conditions: hERG tail current ratio post/pre-compound, 50 uM
# hERG channel, sequence (Q12809 whole entry): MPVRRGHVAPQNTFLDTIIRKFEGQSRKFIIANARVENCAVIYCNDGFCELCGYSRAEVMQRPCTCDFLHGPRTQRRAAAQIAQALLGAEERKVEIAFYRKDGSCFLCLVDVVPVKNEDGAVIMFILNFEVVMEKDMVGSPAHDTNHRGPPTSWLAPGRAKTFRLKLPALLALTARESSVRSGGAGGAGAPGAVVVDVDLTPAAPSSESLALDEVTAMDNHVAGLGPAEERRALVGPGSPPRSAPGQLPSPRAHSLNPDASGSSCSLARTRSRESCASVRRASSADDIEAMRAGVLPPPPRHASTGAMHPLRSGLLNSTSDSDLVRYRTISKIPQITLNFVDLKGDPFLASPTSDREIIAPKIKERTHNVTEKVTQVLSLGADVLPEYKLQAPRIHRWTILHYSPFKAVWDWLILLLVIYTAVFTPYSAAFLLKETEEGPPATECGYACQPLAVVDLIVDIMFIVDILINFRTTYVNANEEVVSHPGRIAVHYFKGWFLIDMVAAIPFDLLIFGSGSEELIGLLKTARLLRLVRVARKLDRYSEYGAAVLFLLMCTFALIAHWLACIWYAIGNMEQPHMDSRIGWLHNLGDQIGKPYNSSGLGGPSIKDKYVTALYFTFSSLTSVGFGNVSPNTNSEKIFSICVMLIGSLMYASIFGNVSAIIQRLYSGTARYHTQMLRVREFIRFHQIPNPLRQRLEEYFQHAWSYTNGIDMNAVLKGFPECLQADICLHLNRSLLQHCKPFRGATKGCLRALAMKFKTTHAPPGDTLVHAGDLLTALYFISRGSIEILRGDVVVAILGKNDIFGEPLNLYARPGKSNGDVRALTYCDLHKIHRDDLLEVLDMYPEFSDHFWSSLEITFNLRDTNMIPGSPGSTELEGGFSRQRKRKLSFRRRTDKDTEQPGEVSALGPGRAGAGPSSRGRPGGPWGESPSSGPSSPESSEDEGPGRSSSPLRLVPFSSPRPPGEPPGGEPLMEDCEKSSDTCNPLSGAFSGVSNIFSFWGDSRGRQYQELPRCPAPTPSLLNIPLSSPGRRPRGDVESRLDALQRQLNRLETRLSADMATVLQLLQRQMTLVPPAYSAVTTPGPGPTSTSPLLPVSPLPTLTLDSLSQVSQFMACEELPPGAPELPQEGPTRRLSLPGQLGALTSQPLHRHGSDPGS
# [3] = biological target: T1, GPR35 (Homo sapiens, UniProt Q9HC97); assay: Ca2+ mobilization assay (Fluo-4) in HEK-GPR35-Gqo5 cells; assay type: cell-based; conditions: for Ca2+ moblization (HEK-GPR35-Gqo5): HEK293 cells co-expressing GPR35 and Gqo5, Fluo-4, compounds 10 μM
# T1 construct: myc; expressed in transfected cells; host or cells: HEK293, transient co-transfection (Lipofectamine LTX)
# T1 sequence (Q9HC97 whole entry): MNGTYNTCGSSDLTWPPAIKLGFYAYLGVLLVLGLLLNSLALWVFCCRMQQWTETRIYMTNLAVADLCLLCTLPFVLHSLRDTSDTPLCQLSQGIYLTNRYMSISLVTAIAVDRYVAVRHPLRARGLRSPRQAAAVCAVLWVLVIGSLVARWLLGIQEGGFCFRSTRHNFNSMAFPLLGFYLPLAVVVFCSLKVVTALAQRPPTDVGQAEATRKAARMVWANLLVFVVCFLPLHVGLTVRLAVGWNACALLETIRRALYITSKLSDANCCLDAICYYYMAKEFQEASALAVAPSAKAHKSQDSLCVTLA
# [4] = HT29 cells pretreated with compound, then GPR35 agonist
# [5] = HT29, zaprinast 400 nM, U73122, cytochalasin D, Y27632 10 micromolar, CTX 1 microgram/ml, PTX 100 nanogram/ml
# GPR35, sequence (Q9HC97 whole entry): as above
molecule,measurement,setting,value
N#CC(C#N)=C(N)/C(C#N)=C/c1ccc(O)cc1 [AG112],Desenstization to GPR35 agonist,[1]; [4],desenstized
N#CC(C#N)=Cc1ccc([N+](=O)[O-])c(O)c1 [AG126],Desenstization to GPR35 agonist,[1]; [4],desenstized
same,Electrophysiology (HEK-hERG),[2],inactive
N#CC(=Cc1ccc2[nH]ccc2c1)C(N)=C(C#N)C#N [AG370],Desenstization to GPR35 agonist,[1]; [4],desenstized
same,Electrophysiology (HEK-hERG),[2],inactive
N#C/C(=C/c1ccc(O)c(O)c1)C(=O)NCc1ccccc1 [AG490],Desenstization to GPR35 agonist,[1]; [4],desenstized
COc1cc(/C=C(\C#N)C(N)=O)cc(CSc2nc3ccccc3s2)c1O [AG825],Desenstization to GPR35 agonist,[1]; [4],desenstized
CC(C)(C)c1cc(C=C(C#N)C#N)cc(Br)c1O [AG1024],Desenstization to GPR35 agonist,[1]; [4],desenstized
N#CC(C#N)=Cc1cc(O)c(O)c([N+](=O)[O-])c1 [AG1288],Desenstization to GPR35 agonist,[1]; [4],desenstized
"CCCCc1ccc(C2(C)OC(=C(C#N)C#N)C(C#N)=C2C)cc1 (stereo not drawn) [Compound 01, 2-dicyanomethylene-3-cyano-4,5-dimethyl-5-[4′-n-butylphenyl]-2,5-dihydrofuran]",Ca2+ moblization (HEK-GPR35-Gqo5),[3],inactive
same,Desenstization to GPR35 agonist,[1]; [4],desenstized
same,Electrophysiology (HEK-hERG),[2],inactive
"CC1=C(C#N)C(=C(C#N)C#N)OC1(C)c1ccc(F)cc1F (stereo not drawn) [Compound 02, 2-dicyanomethylene-3-cyano-4,5-dimethyl-5-[2′,4′-difluorophenyl]-2,5-dihydrofuran]",Ca2+ moblization (HEK-GPR35-Gqo5),[3],active
same,Desenstization to GPR35 agonist,[1]; [4],desenstized
same,Electrophysiology (HEK-hERG),[2],inactive
"CC1=C(C#N)C(=C(C#N)C#N)OC12CCCCC2 [Compound 03, 2-dicyanomethylene-3-cyano-4-methyl-5-spiro-cyclohexyl-2,5-dihydrofuran]",Ca2+ moblization (HEK-GPR35-Gqo5),[3],inactive
same,Desenstization to GPR35 agonist,[1]; [4],desenstized
same,Electrophysiology (HEK-hERG),[2],inactive
"CC1=C(C#N)C(=C(C#N)C#N)OC1(c1ccccc1)C(F)(F)F (stereo not drawn) [Compound 04, 2-dicyanomethylene-3-cyano-4-methyl-5-phenyl-5-perfluoromethyl-2,5-dihydrofuran]",Ca2+ moblization (HEK-GPR35-Gqo5),[3],active
same,Desenstization to GPR35 agonist,[1]; [4],desenstized
same,Electrophysiology (HEK-hERG),[2],activator
"CC1=C(C#N)C(=C(C#N)C#N)OC12c1ccccc1-c1ccccc12 [Compound 05, 2-dicyanomethylene-3-cyano-4-methyl-5-spiro-fluorenylidine-2,5-dihydrofuran]",Ca2+ moblization (HEK-GPR35-Gqo5),[3],inactive
same,Desenstization to GPR35 agonist,[1]; [4],desenstized
same,Electrophysiology (HEK-hERG),[2],inactive
"CC1=C(C#N)C(=C(C#N)C#N)OC1(C)c1ccc(Cl)c(Cl)c1Cl (stereo not drawn) [Compound 06, 2-dicyanomethylene-3-cyano-4,5-dimethyl-5-[2′,3′,4′-trichlorophenyl]-2,5-dihydrofuran]",Ca2+ moblization (HEK-GPR35-Gqo5),[3],inactive
same,Desenstization to GPR35 agonist,[1]; [4],desenstized
same,Electrophysiology (HEK-hERG),[2],inactive
"CC1=C(C#N)C(=C(C#N)C#N)OC1(C)c1ccc(Cl)c(Cl)c1 (stereo not drawn) [Compound 07, 2-dicyanomethylene-3-cyano-4,5-dimethyl-5-[3′,4′-dichlorophenyl]-2,5-dihydrofuran]",Ca2+ moblization (HEK-GPR35-Gqo5),[3],active
same,Desenstization to GPR35 agonist,[1]; [4],desenstized
same,Electrophysiology (HEK-hERG),[2],inactive
"CC1=C(C#N)C(=C(C#N)C(N)=C(C#N)C#N)OC1(C)C [Compound 08, 2-cyano-2-(1-amino-2,2-dicyanovinyl)methylene-3-cyano-4,5,5-trimethyl-2,5-dihydrofuran]",Ca2+ moblization (HEK-GPR35-Gqo5),[3],active
same,Desenstization to GPR35 agonist,[1]; [4],desenstized
same,Electrophysiology (HEK-hERG),[2],inactive
"CC1=C(C#N)C(=C(C#N)C#N)OC1(C)c1c(F)c(F)c(F)c(F)c1F (stereo not drawn) [Compound 09, 2-dicyanomethylene-3-cyano-4,5-dimethyl-5-[2′3′4′5′6′-pentafluorophenyl]-2,5-dihydrofuran]",Ca2+ moblization (HEK-GPR35-Gqo5),[3],active
same,Desenstization to GPR35 agonist,[1]; [4],desenstized
same,Electrophysiology (HEK-hERG),[2],inactive
"CC1=C(C#N)C(=C(C#N)C#N)OC1(C)C [Compound 10, 2-dicyanomethylene-3-cyano-4,5,5-trimethyl-2,5-dihydrofuran]",Ca2+ moblization (HEK-GPR35-Gqo5),[3],active
same,Desenstization to GPR35 agonist,[1]; [4],desenstized
same,Electrophysiology (HEK-hERG),[2],inactive
"O=C(O)c1cc2sccc2s1 [Compound 11, thieno[3,2-b]thiophene-2-carboxylic acid]",Ca2+ moblization (HEK-GPR35-Gqo5),[3],inactive
same,Desenstization to GPR35 agonist,[1]; [4],desenstized
same,Electrophysiology (HEK-hERG),[2],inactive
"Cc1c(C(=O)O)sc2ccsc12 [Compound 12, 3-methyl-thieno[3,2-b]thiophene-2-carboxylic acid]",Ca2+ moblization (HEK-GPR35-Gqo5),[3],active
same,Desenstization to GPR35 agonist,[1]; [4],desenstized
same,Electrophysiology (HEK-hERG),[2],inactive
"CCCCCCc1csc2cc(C(=O)O)sc12 [Compound 14, 6-hexyl-thieno[3,2-b]thiophene-2-carboxylic acid]",Ca2+ moblization (HEK-GPR35-Gqo5),[3],active
same,Desenstization to GPR35 agonist,[1]; [4],desenstized
same,Electrophysiology (HEK-hERG),[2],blocker
"CCCCCCCCCCC(=O)c1sc2c(Br)csc2c1Br [Compound 15, 3,6-dibromo-thieno[3,2-b]thiophene-2-undecanone]",Electrophysiology (HEK-hERG),[2],inactive
"CCCCCCCCCCCc1c(C(=O)O)sc2c(Br)csc12 [Compound 16, 3-n-undecyl-6-bromo-thieno[3,2-b]thiophene-2-carboxylic acid]",Desenstization to GPR35 agonist,[1],desenstized
same,Electrophysiology (HEK-hERG),[2],inactive
"CCCCCCCCCCCCCc1c(C(=O)O)sc2c(Br)csc12 [Compound 17, 3-n-tridecyl-6-bromo-thieno[3,2-b]thiophene-2-carboxylic acid]",Desenstization to GPR35 agonist,[1],desenstized
same,Electrophysiology (HEK-hERG),[2],activator
"CCCCCCCCCCc1c(C(=O)O)sc2c(Br)csc12 [Compound 18, 3-n-decyl-6-bromo-thieno[3,2-b]thiophene-2-carboxylic acid]",Desenstization to GPR35 agonist,[1]; [4],desenstized
same,Electrophysiology (HEK-hERG),[2],activator
"CCCCCCCCCCCCCCCc1c(C(=O)O)sc2c(Br)csc12 [Compound 19, 3-n-pentadecyl-6-bromo-thieno[3,2-b]thiophene-2-carboxylic acid]",Desenstization to GPR35 agonist,[1]; [4],desenstized
same,Electrophysiology (HEK-hERG),[2],activator
"COc1ccc2c(c1)CC[C@@H]1[C@@H]2CC[C@]2(C)[C@@H](NCCCCCCN3C(=O)C=CC3=O)CC[C@@H]12 [Compound U73122, U73122]",effect of pathway agent pretreatment on the zaprinast DMR signal,[1]; [5],insensitive
same,"effect of pathway agent on the 6-bromo-3-methylthieno[3,2-b]thiophene-2-carboxylic acid DMR",[1]; HT29 cells,insensitive
"C[C@@H](N)[C@H]1CC[C@H](C(=O)Nc2ccncc2)CC1 [Compound Y27632, Y27632]",effect of pathway agent pretreatment on the zaprinast DMR signal,[1]; [5],partially attenuated
same,"effect of pathway agent on the 6-bromo-3-methylthieno[3,2-b]thiophene-2-carboxylic acid DMR",[1]; HT29 cells,partially attenuated
O=C(O)Cc1ccccc1Nc1c(Cl)cccc1Cl [Diclofenac],Ca2+ moblization (HEK-GPR35-Gqo5),[3],inactive
same,Desenstization to GPR35 agonist,[1]; [4],desenstized
CCN(CC)C(=O)/C(C#N)=C/c1cc(O)c(O)c([N+](=O)[O-])c1 [Entacapone],Electrophysiology (HEK-hERG),[2],inactive
NS(=O)(=O)c1cc(C(=O)O)c(NCc2ccco2)cc1Cl [Furosemdie],Ca2+ moblization (HEK-GPR35-Gqo5),[3],active
same,Ca2+ mobilization signal in cells co-expressing GPR35 and Gqo5,"[3]; engineered HEK293, 10 μM",active
same,Desenstization to GPR35 agonist,[1]; [4],desenstized
O=C(O)c1ccccc1Nc1ccccc1 [N-phenylanthranilic],Desenstization to GPR35 agonist,[1]; [4],desenstized
CCNc1nc(C)nc2c1cnn2-c1ccc(C)cc1 [NSC1619],Desenstization to GPR35 agonist,[1]; [4],inactive
same,Electrophysiology (HEK-hERG),[2],activator
O=C(O)c1ccccc1Nc1ccc(CCc2ccc(Cl)c(Cl)c2)cc1 [PD-118057],Desenstization to GPR35 agonist,[1]; [4],desenstized
same,Electrophysiology (HEK-hERG),[2],activator
N#CC(C#N)=Cc1ccc(O)c(O)c1 [Tyrphostin 23],Desenstization to GPR35 agonist,[1]; [4],desenstized
N#CC(C#N)=Cc1cc(O)c(O)c(O)c1 [Tyrphostin 25],Desenstization to GPR35 agonist,[1]; [4],desenstized
same,Electrophysiology (HEK-hERG),[2],inactive
C=C1[C@@H](C)[C@H]2[C@H](Cc3ccccc3)NC(=O)[C@]23[C@H](OC(C)=O)/C=C/[C@@](C)(O)C(=O)[C@@H](C)C/C=C/[C@H]3[C@@H]1O [cytochalasin D],effect of pathway agent pretreatment on the zaprinast DMR signal,[1]; [5],completely attenuated; also recorded: completely block
same,"effect of pathway agent on the 6-bromo-3-methylthieno[3,2-b]thiophene-2-carboxylic acid DMR",[1]; HT29 cells,blocked
Pertussis toxin,effect of pathway agent pretreatment on the zaprinast DMR signal,[1]; [5],insensitive
same,"effect of pathway agent on the 6-bromo-3-methylthieno[3,2-b]thiophene-2-carboxylic acid DMR",[1]; HT29 cells,insensitive
cholera toxin,"effect of pathway agent on the 6-bromo-3-methylthieno[3,2-b]thiophene-2-carboxylic acid DMR",[1],insensitive
same,effect of pathway agent pretreatment on the zaprinast DMR signal,[1],insensitive

# — patent publication US20120022116A1, “COMPOSITIONS AND METHODS FOR THE TREATMENT OF PATHOLOGICAL CONDITION(S) RELATED TO GPR35 AND/OR GPR35-HERG COMPLEX” (priority 2010, published 2012)
